Test system: MIA PaCa-2 cells
Experiment: Xenograft tumor model
Type: in vivo, Balb/c-nu mice
Description: MIA PaCa-2 cells (1×10 7) in 100 μl PBS were subcutaneously inoculated into 6-8 weeks old Balb/c-nu mice (Orient, Seoul, Korea) using a 1 ml syringe. After one week, the mice were divided into three groups: a control group (solvent treatment), a KN713 40 mg/kg/100 μl treatment group, and a KN713 80 mg/kg/200 μl treatment group. KN713 was administered intraperitoneally once a day (for 49 days, 6 days/week, n=7). The primary tumor size was measured weekly using a caliper, and the tumor volume was calculated using the formula V=(A×B^2)/2 (V=volume (mm^3), A=long diameter, B=short diameter). This experiment was reviewed and approved by the Institutional Animal Care and Use Committee (IACUC) of the National Cancer Center Research Institute, which was established by the International Association for Accreditation of Laboratory Animals (It was accredited by AAALAC International).

COc1ccc(CN2CCNCC2)c(OC)c1OC [KN713, trimetazidine]
tumor size (tumor volume) (KN713 40 mg/kg intraperitoneally once a day, column 3 (measured weekly), Control 148.59): 147.09 mm^3 | tumor size (tumor volume) (KN713 40 mg/kg intraperitoneally once a day, column 4 (measured weekly), Control 448.52): 319.40 mm^3 | tumor size (tumor volume) (KN713 40 mg/kg intraperitoneally once a day, column 5 (measured weekly), Control 748.89): 499.29 mm^3 | tumor size (tumor volume) (KN713 40 mg/kg intraperitoneally once a day, column 6 (measured weekly), Control 944.41): 593.57 mm^3 | tumor size (tumor volume) (KN713 40 mg/kg intraperitoneally once a day, column 7 (measured weekly), Control 1472.13): 790.38 mm^3 | tumor size (tumor volume) (KN713 40 mg/kg intraperitoneally once a day, column 8 (measured weekly), Control 1709.54): 965.18 mm^3 | tumor size (tumor volume) (KN713 80 mg/kg intraperitoneally once a day, column 3 (measured weekly), Control 148.59): 147.36 mm^3 | tumor size (tumor volume) (KN713 80 mg/kg intraperitoneally once a day, column 4 (measured weekly), Control 448.52): 279.36 mm^3 | tumor size (tumor volume) (KN713 80 mg/kg intraperitoneally once a day, column 5 (measured weekly), Control 748.89): 372.00 mm^3 | tumor size (tumor volume) (KN713 80 mg/kg intraperitoneally once a day, column 6 (measured weekly), Control 944.41): 420.82 mm^3 | tumor size (tumor volume) (KN713 80 mg/kg intraperitoneally once a day, column 7 (measured weekly), Control 1472.13): 589.49 mm^3 | tumor size (tumor volume) (KN713 80 mg/kg intraperitoneally once a day, column 8 (measured weekly), Control 1709.54): 555.42 mm^3 | tumor size (mouse model transplanted with MIA PaCa2, result in words): significantly suppressed

From US12728119B2, “Pharmaceutical composition for preventing or treating cancer comprising 3-ketoacyl CoA thiolase inhibitor and carnitine acylcarnitine carrier inhibitor” (NATIONAL CANCER CENTER, priority 2020, dated 2026)
